Experimental data as given in patent US11136317B2, “NADPH oxidase 4 inhibitors” (ACTELION PHARMACEUTICALS LTD, priority 2015, dated 2021).

What follows are compounds tested against T1, human NOX4 (Homo sapiens, UniProt Q9NPH5) (assay: Amplex Red activity assay (cellular H2O2 formation in hNOX4 T-REx-293 cells)). Conditions: tet-induced 24 h, extracellular H2O2 by Amplex Red, 60 min 25° C., geometric mean if determined several times.
T1 construct: The full-length human NOX4 (NM_016931.3) transcript was cloned; expressed in transfected cells
T1 sequence (Q9NPH5 1-578): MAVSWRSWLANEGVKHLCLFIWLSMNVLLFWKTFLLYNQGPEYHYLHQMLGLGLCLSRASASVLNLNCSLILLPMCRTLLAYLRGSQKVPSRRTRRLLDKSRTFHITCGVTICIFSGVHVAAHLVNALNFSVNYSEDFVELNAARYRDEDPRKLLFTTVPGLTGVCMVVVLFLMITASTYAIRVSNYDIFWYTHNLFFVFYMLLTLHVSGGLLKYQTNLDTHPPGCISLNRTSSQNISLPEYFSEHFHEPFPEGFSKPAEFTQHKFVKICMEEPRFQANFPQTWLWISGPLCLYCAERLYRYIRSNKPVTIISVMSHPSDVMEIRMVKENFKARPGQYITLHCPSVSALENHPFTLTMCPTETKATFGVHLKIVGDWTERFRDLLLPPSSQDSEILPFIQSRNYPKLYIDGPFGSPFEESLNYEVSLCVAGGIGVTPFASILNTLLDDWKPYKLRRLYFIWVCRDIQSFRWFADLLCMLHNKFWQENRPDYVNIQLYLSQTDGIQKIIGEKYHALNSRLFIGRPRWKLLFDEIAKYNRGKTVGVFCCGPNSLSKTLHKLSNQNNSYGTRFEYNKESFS
T1 sequence (P13498 1-195 partner): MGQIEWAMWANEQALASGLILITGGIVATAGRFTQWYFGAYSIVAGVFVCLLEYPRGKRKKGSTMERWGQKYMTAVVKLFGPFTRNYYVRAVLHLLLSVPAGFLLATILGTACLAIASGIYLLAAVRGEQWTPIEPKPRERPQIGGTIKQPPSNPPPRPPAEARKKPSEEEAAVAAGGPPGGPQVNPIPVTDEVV
Type: cell-based
How it was run: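 Tet-induced (1 μg/mL, 24 h) HEK293 T-REx cells stably expressing full-length human NOX4, 20 000 cells/well, exposed to compounds (10 concentrations, 50 μM to 100 nM; 1.25% DMSO) for 60 min at 25°C. Extracellular H2O2 detected by Amplex Red resorufin fluorescence (ex 550/em 600 nm) versus vehicle; IC50 calculated.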

IC50 [nM] | Compound
2970 | O=C(Nc1ccc2oc(N(C3CC3)C3COC3)nc2c1)c1ccc2c(c1)OCCO2 [Example 176, 2,3-Dihydro-benzo[1,4]dioxine-6-carboxylic acid [2-(cyclopropyl-oxetan-3-yl-amino)-benzooxazol-5-yl]-amide]
2340 | O=C(Nc1ccc2oc(N3CC(c4ccccn4)C3)nc2c1)c1ccc2c(c1)CCO2 [Example 120, 2,3-Dihydro-benzofuran-5-carboxylic acid [2-(3-pyridin-2-yl-azetidin-1-yl)-benzooxazol-5-yl]-amide]
2750 | COC1CCN(c2nc3cc(C(=O)Nc4ccc5c(c4)CCO5)ccc3s2)CC1 [Example 200, 2-(4-Methoxy-piperidin-1-yl)-benzothiazole-5-carboxylic acid (2,3-dihydro-benzofuran-5-yl)-amide]
379 | O=C(Nc1ccc2oc(N3CCCC34COC4)nc2c1)c1ccc2c(c1)CCCO2 [Example 147, Chroman-6-carboxylic acid [2-(2-oxa-5-aza-spiro[3.4]oct-5-yl)-benzooxazol-5-yl]-amide]
417 | CCN(CC)c1nc2cc(C(=O)Nc3ccc4c(c3)CCO4)ccc2o1 [Example 78, 2-Diethylamino-benzooxazole-5-carboxylic acid (2,3-dihydro-benzofuran-5-yl)-amide]
1430 | O=C(Nc1ccc2oc(N3CCC(F)(F)CC3)nc2c1)c1ccc2c(c1)CCCO2 [Example 149, Chroman-6-carboxylic acid [2-(4,4-difluoro-piperidin-1-yl)-benzooxazol-5-yl]-amide]
524 | O=C(Nc1ccc2oc(N3CC4(CCS4(=O)=O)C3)nc2c1)c1ccc2c(c1)CCO2 [Example 72, 2,3-Dihydro-benzofuran-5-carboxylic acid [2(1,1-dioxo-1l6-thia-6-aza-spiro[3.3]hept-6-yl)-benzooxazol-5-yl]-amide]
665 | O=C(Nc1ccc2oc(N3CCC34CCC4)nc2c1)c1ccc2c(c1)OCCO2 [Example 161, 2,3-Dihydro-benzo[1,4]dioxine-6-carboxylic acid [2-(1-aza-spiro[3.3]hept-1-yl)-benzooxazol-5-yl]-amide]
2870 | CN1CCN(c2nc3cc(C(=O)Nc4ccc5c(c4)CCO5)ccc3s2)CC1 [Example 201, 2-(4-Methyl-piperazin-1-yl)-benzothiazole-5-carboxylic acid (2,3-dihydro-benzofuran-5-yl)-amide]
566 | O=C(Nc1ccc2oc(N3CCC[C@@H](O)C3)nc2c1)c1ccc2c(c1)CCO2 [Example 42, (R)—N-(2-(3-hydroxypiperidin-1-yl)benzo[d]oxazol-5-yl)-2,3-dihydrobenzofuran-5-carboxamide]
3210 | CN(c1nc2cc(NC(=O)c3ccc4c(c3)CCO4)ccc2s1)C1COC1 [Example 103, 2,3-Dihydro-benzofuran-5-carboxylic acid [2-(methyl-oxetan-3-yl-amino)-benzothiazol-5-yl]-amide]
1880 | O=C(Nc1ccc2oc(N3CCCCC3)nc2c1)c1ccc2c(c1)CCCO2 [Example 148, Chroman-6-carboxylic acid (2-piperidin-1-yl-benzooxazol-5-yl)-amide]
414 | O=C(Nc1ccc2oc(N3CCC34COC4)nc2c1)c1ccc2c(c1)OCO2 [Example 124, Benzo[1,3]dioxole-5-carboxylic acid [2-(6-oxa-1-aza-spiro[3.3]hept-1-yl)-benzooxazol-5-yl]-amide]
400 | O=C(Nc1ccc2oc(N3CCCC4(COC4)C3)nc2c1)c1ccc2c(c1)CCO2 [Example 55, 2,3-Dihydro-benzofuran-5-carboxylic acid [2-(2-oxa-6-aza-spiro[3.5]non-6-yl)-benzooxazol-5-yl]-amide]
404 | O=C(Nc1ccc2oc(N3CCC34CCOCC4)nc2c1)c1ccc2c(c1)CCO2 [Example 36, 2,3-Dihydro-benzofuran-5-carboxylic acid [2-(7-oxa-1-aza-spiro[3.5]non-1-yl)-benzooxazol-5-yl]-amide]
